Assay [1] has as its target T1, human isoQC (Homo sapiens, UniProt Q9NXS2, C369A/I73N). As to the kind of experiment: Inhibitor assay, human isoQC (Ki/IC50, competitive inhibition).
Procedure: (§4) All measurements were performed with a NovoStar reader for microplates (BMG Labtechnologies) at 30° C. […] Excitation/emission wavelengths were 320/410 nm.
Assay [2] concerns the target T2, human isoQC (Homo sapiens, UniProt Q9NXS2). As to the kind of experiment: Kinetic evaluation of peptide substrates of human isoQC. In kind it is biochemical. Details: The cDNA of the mature human isoQC starting with codon 30 (counting from methionine II); His6 (C-His) (C); yeast alpha-factor secretion signal (YSS) (N); made in house; host or cells: Pichia pastoris X-33. The following applies: human isoQC expressed in E. coli BL21 (hisoQCdt). The procedure:
(§1) Excitation/emission wavelengths were 320/410 nm.
(§2) Excitation/emission wavelengths were 380/460 nm.
(§3) Kinetic data were evaluated using GraFit software.
Target sequence in this assay (Q9NXS2 48-382): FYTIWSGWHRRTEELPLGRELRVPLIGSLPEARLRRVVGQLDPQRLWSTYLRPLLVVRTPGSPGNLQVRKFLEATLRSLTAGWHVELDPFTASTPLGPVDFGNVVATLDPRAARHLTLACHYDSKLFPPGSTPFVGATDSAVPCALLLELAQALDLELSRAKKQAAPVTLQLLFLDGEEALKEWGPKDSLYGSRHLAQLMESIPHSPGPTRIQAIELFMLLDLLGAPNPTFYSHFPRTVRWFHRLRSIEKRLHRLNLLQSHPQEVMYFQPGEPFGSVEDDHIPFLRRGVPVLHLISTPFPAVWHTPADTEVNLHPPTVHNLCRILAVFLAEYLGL

Assay [3] has as its target T1, human isoQC. The assay is described as above. In kind it is biochemical. On the set-up: The cDNA of the mature human isoQC starting with codon 30 (counting from methionine II); His6 (C-His) (C); yeast alpha-factor secretion signal (YSS) (N); made in house; host or cells: Pichia pastoris X-33. The following applies: human isoQC expressed in P. pastoris (YSShisoQC). On the procedure: as §1, §2, §3

Assay [4] addresses T3, mouse-isoQC (Mus musculus, UniProt Q8BH73, I74N). The experiment in a line: Inactivation/reactivation of mouse-isoQC by chelators and metal ions. The conditions noted are these: for reactivation of mouse-isoQC apoenzyme: metal added after removal of the chelator.
Procedure: The final dialysis was performed for 5 h. All buffers were prepared in metal-free polystyrene containers. Subsequently, the apoenzyme was centrifuged at 20.000×g for 1 h at 4° C., and the protein concentration was determined by UV absorbance.
Assay [5] deals with human QC (Homo sapiens, UniProt Q16769). As to the kind of experiment: Inhibitor assay, human QC (Ki/IC50, competitive inhibition).
Procedure: as §4
Assay [6] deals with T2, human isoQC. The experiment in a line: Inhibitor assay, human isoQC (Ki/IC50, competitive inhibition).
Target sequence in this assay (Q9NXS2 48-382): as above
Procedure: as §4
Assay [7] has as its target T2, human isoQC. The experiment in a line: Inactivation of human isoQC by heterocyclic chelators. It is filed as biochemical.
Target sequence in this assay (Q9NXS2 whole entry): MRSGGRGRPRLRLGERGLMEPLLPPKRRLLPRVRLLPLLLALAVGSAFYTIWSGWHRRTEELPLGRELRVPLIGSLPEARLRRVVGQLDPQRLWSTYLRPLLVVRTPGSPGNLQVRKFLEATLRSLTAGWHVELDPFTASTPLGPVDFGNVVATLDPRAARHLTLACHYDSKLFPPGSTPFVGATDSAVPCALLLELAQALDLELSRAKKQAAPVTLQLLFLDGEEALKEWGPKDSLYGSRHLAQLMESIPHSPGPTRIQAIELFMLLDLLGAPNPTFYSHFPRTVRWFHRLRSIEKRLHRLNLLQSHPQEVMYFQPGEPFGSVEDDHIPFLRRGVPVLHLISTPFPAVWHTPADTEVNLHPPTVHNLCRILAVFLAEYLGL
Assay [8] addresses T3, mouse-isoQC. The experiment in a line: Kinetic parameters of conversion of peptide substrates by murine isoQC. On the set-up: starting with codon 43 (Glu 43) of the open reading frame (counting from methionine II); yeast alpha-factor secretion signal (N); made in house; host or cells: Pichia pastoris X-33. In kind it is biochemical. On the procedure: as §1, §2, §3
For assay [9], the system named is Thioglycollate-induced peritonitis in C57/Bl6J mice. As to the kind of experiment: Thioglycollate-induced peritonitis in C57/Bl6J wild type mice. In kind it is in vivo, mouse. On the procedure: C57/Bl6J mice were purchased from Charles River Laboratories (Kisslegg, Germany). For each experiment, the mice were age- and sex-matched. An intraperitoneal injection of 25 ml/kg body weight of sterile 8% (w/v) thioglycollate (Sigma-Aldrich) was used to induce peritonitis. 30 min before the thioglycollate-stimulus, animals were injected with different doses of isoQC-inhibitor isoQC-I. For lavage of the peritoneum, the animals were anesthetized using 2% isofluran. The peritoneal exudates were collected by washing the peritoneum with 8 ml of sterile PBS 4 h after thioglycollate injection. Cells of 1 ml lavage fluid were collected by centrifugation (300 g, 10 min) and stained according to the manufacturer's instructions for BD Trucount tubes (BD Trucount tubes; catalog no. 340334; BD Biosciences, Heidelberg, Germany). Cells were blocked with CD16/32 (Caltag) at 4° C. for 15 min. and stained with 7/4-FITC (Serotec, Dusseldorf, Germany)/Ly6G-PE (Miltenyi, Bergisch Gladbach, Germany) as well as IgG1-PE (BD)/IgG2a-FITC (Miltenyi) as isotype controls at room temperature for 15 min. After staining, erythrocytes were lysed with BD FACSLyse (BD) in the dark at room temperature for 15 min. After washing with PBS, flow cytometric analysis was performed on a BD FACSCalibur (BD) based on 5000 beads per sample as reference standard.

Read-outs that look alike come from different tables or passages of the source. Peptide text beside a SMILES is read from it.

T1 sequence (Q9NXS2 48-382 I73N/C369A): as the sequence (Q9NXS2 48-382) above, with I26N, C322A counted along it
T3 sequence (Q8BH73 61-383 I74N): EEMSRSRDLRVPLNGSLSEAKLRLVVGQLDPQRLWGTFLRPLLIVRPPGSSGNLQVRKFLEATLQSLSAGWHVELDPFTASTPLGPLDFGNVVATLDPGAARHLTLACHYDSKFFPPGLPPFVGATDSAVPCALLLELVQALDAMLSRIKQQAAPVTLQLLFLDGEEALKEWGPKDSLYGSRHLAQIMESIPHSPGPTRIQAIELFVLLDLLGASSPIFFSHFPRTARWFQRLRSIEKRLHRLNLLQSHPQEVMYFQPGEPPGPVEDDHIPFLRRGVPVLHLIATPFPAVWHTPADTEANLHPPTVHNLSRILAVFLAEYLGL
Chain of human QC (Q16769 29-361): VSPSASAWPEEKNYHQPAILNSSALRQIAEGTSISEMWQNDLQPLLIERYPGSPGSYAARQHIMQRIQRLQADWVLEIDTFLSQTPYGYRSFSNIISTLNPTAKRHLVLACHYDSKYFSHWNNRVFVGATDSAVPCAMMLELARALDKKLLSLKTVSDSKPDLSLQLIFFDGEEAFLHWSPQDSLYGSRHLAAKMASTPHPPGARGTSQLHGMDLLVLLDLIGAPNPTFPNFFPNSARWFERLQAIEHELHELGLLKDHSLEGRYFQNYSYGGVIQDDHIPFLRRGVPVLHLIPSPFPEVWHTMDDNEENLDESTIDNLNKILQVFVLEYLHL

With `O=C1NC(=S)C(c2ccc(F)c(F)c2F)N1c1ccc2nc[nH]c2c1` (centres unmarked) [Example 41, 1-(1H-benzo[d]imidazol-5-yl)-5-(2,3,4-trifluorophenyl)-4-thioxoimidazolidin-2-one], in assay [1], the IC50 was 163 nM and the Ki was 34.5 nM.

As for `NC(=O)CC[C@H](NC(=O)[C@@H](N)CCC(N)=O)C(=O)O` [QQ] (H-Gln-Gln-OH), the results for the Km in [2] and in assay [3] were 0.11 ± 0.027 mM and 0.11 ± 0.007 mM, respectively.

For manganese, in [4], the “reactivation of mouse-isoQC apoenzyme” value is “No reactivation”.

In [1], `O=C1NC(=O)N(c2ccc3[nH]cnc3c2)C1c1ccc2nsnc2c1` (centres unmarked) [Example 1, 5-(benzo[c][1,2,5]thiadiazol-6-yl)-1-(1H-benzo[d]imidazol-5-yl)imidazolidine-2,4-dione] registered an IC50 of 3.3 nM and a Ki of 1.62 nM.

`O=C1NC(=O)N(c2ccc3[nH]cnc3c2)C1c1cccc(Cl)c1` (centres unmarked) [Example 12, 1-(1H-benzo[d]imidazol-5-yl)-5-(3-chlorophenyl)imidazolidine-2,4-dione]: in assay [1], the IC50 was 58 nM and the Ki was 10.5 nM.

As for `Cn1ccnc1` [1-Methylimidazole], the Ki is 39.7 ± 0.2 µM in assay [5], 80000 ± 5000 nM in [6] and 82000 ± 3000 nM in assay [1].

For `NC(=O)CC[C@H](N)C(=O)N[C@@H](CCC(=O)O)C(=O)O` [QE] (H-Gln-Glu-OH), the figures for the Km in assay [2] and in assay [3] were 0.7 ± 0.13 mM and 0.61 ± 0.064 mM, respectively.

Consider `O=C1NC(=O)N(c2ccc3[nH]cnc3c2)C1c1ccccc1Cl` (centres unmarked) [Example 14, 1-(1H-benzo[d]imidazol-5-yl)-5-(2-chlorophenyl)imidazolidine-2,4-dione], for which, in assay [1], the IC50 is 40 nM and the affinity, expressed as Ki, was 3.07 nM.

In the case of `O=C1NC(=O)N(c2ccc3[nH]cnc3c2)C1c1ccc(Cl)c(C(F)(F)F)c1` (centres unmarked) [Example 7, 1-(1H-benzo[d]imidazol-5-yl)-5-(4-chloro-3-(trifluoromethyl)phenyl)imidazolidine-2,4-dione], in [1], the IC50 turned out to be 1400 nM and the Ki amounted to 35.2 nM.

In [1], `O=C1NC(=S)C(c2ccc(Cl)cc2)N1c1ccc2[nH]cnc2c1` (centres unmarked) [Example 40, 1-(1H-benzo[d]imidazol-5-yl)-5-(4-chlorophenyl)-4-thioxoimidazolidin-2-one] yielded an IC50 of 58.3 nM and a Ki of 11.4 nM.

With `COc1ccc(C2C(=O)NC(=O)N2c2ccc3[nH]cnc3c2)cc1O` (centres unmarked) [Example 9, 1-(1H-benzo[d]imidazol-5-yl)-5-(3-hydroxy-4-methoxyphenyl)imidazolidine-2,4-dione], in assay [1], the IC50 amounted to 30.3 nM and the Ki is 2.66 nM.

Turning to `O=C(O)CN(CCN(CC(=O)O)CC(=O)O)CC(=O)O` [EDTA], the “inactivation of human isoQC” value in assay [7] was “inactivated”.

Regarding `NC(=O)CC[C@H](N)C(=O)Nc1ccc2ccccc2c1` [Q-βNA, H-Gln-βNA], in [8], the Km amounted to 0.032 ± 0.003 mM and the “kcat (s^−1) m-isoQC” value is 17.48 ± 0.97 s⁻¹. Further, in assay [2], the Km amounted to 0.03 ± 0.002 mM and the “kcat (s^−1) hisoQCdt” value was found to be 3.37 ± 0.12 s⁻¹. Moreover, in assay [3], the Km stood at 0.035 ± 0.0005 mM and the “kcat (s^−1) YSShisQC” value came out at 8.16 ± 0.87 s⁻¹.

Take `c1ccc2[nH]cnc2c1` [Benzimidazole]: the Ki in [5] (read-out: Ki (μM) hQC, competitive inhibition) was 138 ± 4 µM; in assay [6], 200000 ± 8000 nM; in assay [1], 250000 ± 5000 nM.

Consider `c1cnc2c(c1)ccc1cccnc12` [1,10-phenantroline], for which, in assay [7], the “inactivation of human isoQC” value was “inactivated”. Moreover, in assay [4] (dialysis against buffer containing 5 mM 1,10-phenantrolin and 5 mM EDTA), the “inactivation of mouse-isoQC” value is reported as “inactivation”.

In assay [1], `O=C1NC(=O)C2(Cc3ccccc3C2)N1c1ccc2[nH]cnc2c1` [Example 32, 3-(1H-benzimidazol-5-yl)-1′,3′-dihydro-2H,5H-spiro[imidazolidine-4,2′-indene]-2,5-dione] gave an IC50 of 166 nM and a Ki of 40.9 nM.

In assay [1], `O=C1NC(=O)N(c2ccc3[nH]cnc3c2)C1c1cc(F)ccc1Br` (centres unmarked) [Example 5, 1-(1H-benzo[d]imidazol-5-yl)-5-(2-bromo-5-fluorophenyl)imidazolidine-2,4-dione] displayed an IC50 of 66 nM and a Ki of 8.27 nM.

Consider `C[C@H](NC(=O)[C@H](Cc1ccccc1)NC(=O)[C@@H](N)CCC(N)=O)C(=O)O` [QFA] (H-Gln-Phe-Ala-OH), for which the Km in assay [2] amounted to 0.11 ± 0.016 mM; in assay [3] it was 0.104 ± 0.025 mM.

Take `NC(=O)CC[C@H](N)C(=O)NCC(=O)O` [QG] (H-Gln-Gly-OH): the figures for the Km in [8], in assay [2] and in assay [3] were 0.16 ± 0.01 mM, 0.42 ± 0.04 mM and 0.36 ± 0.047 mM, respectively.

In assay [1], `O=C1NC(=O)N(c2ccc3[nH]cnc3c2)C1c1ccccc1` (centres unmarked) [Example 2, 1-(1H-benzo[d]imidazol-5-yl)-5-phenylimidazolidine-2,4-dione] showed an IC50 of 29.6 nM and a Ki of 16.4 nM.

Regarding `CCCOc1ccc(C2C(=O)NC(=O)N2c2ccc3[nH]cnc3c2)cc1` (racemic) [Example 6, 1-(1H-benzo[d]imidazol-5-yl)-5-(4-propoxyphenyl)imidazolidine-2,4-dione], the “infiltrating monocytes in the peritoneum (FACS)” value in assay [9] (6 mg/kg ip) is “reduction”; in [9] (18 mg/kg ip), “reduced the infiltration of monocytes down to baseline values”; in assay [9] (different doses ip 30 min before thioglycollate, lavage 4 h after) it was “dose-dependent reduction”. The “pGlu-MCP-1 in lavage fluid” value in [9] (FIG. 25b, different doses) is recorded as “reduction of pGlu-content”.

With `O=C1NC(=O)N(c2ccc3[nH]cnc3c2)C1c1ccc(Cl)cc1` (centres unmarked) [Example 13, 1-(1H-benzo[d]imidazol-5-yl)-5-(4-chlorophenyl)imidazolidine-2,4-dione], in [1], the IC50 was 52 nM and affinity was put at a Ki of 6.71 nM.

In assay [1], `O=C1NC(=O)N(c2ccc3[nH]cnc3c2)C1c1cc(C(F)(F)F)ccc1F` (centres unmarked) [Example 4, 1-(1H-benzo[d]imidazol-5-yl)-5-(2-fluoro-5-(trifluoromethyl)phenyl)imidazolidine-2,4-dione] gave an IC50 of 150 nM and a Ki of 25.8 nM.

Regarding `O=C(O)c1cccc(C(=O)O)n1` [dipicolinic acid], the “inactivation of human isoQC” value in assay [7] was “inactivated”.

As to `O=S(=O)([O-])[O-].[Zn+2]` [ZnSO4], in [4], the “reactivation of mouse-isoQC apoenzyme” value is given as “complete reactivation”.

For calcium, the “reactivation of mouse-isoQC apoenzyme” value in assay [4] is “No reactivation”.

Take `CC(C)C[C@H](NC(=O)[C@H](CC(=O)O)NC(=O)[C@H](CCC(=O)O)NC(=O)[C@@H](N)CCC(N)=O)C(=O)O` [QEDL] (H-QEDL-OH): the Km in [2] worked out at 0.63 ± 0.052 mM; in [3], 0.16 ± 0.01 mM.

As to `O=C1NC(=O)N(c2ccc3[nH]cnc3c2)C1c1ccc(F)cc1` (centres unmarked) [Example 15, 1-(1H-benzo[d]imidazol-5-yl)-5-(4-fluorophenyl)imidazolidine-2,4-dione], in [1], the half-maximal inhibitory concentration (IC50) is 60 nM and the Ki is 12.3 nM.

In the case of `O=C1NC(=O)N(c2ccc3[nH]cnc3c2)C1c1ccc2c(c1)OCCO2` (centres unmarked) [Example 16, 1-(1H-benzo[d]imidazol-5-yl)-5-(2,3-dihydrobenzo[b][1,4]dioxin-7-yl)imidazolidine-2,4-dione], in assay [1], the IC50 turned out to be 57.6 nM and the affinity corresponds to a Ki of 4.14 nM.

For the compound `Cc1cc(=O)oc2cc(NC(=O)[C@@H](N)CCC(N)=O)ccc12` [Q-AMC, H-Gln-AMC], in [8], the Km was found to be 0.022 ± 0.001 mM and the “kcat (s^−1) m-isoQC” value was 6.98 ± 0.35 s⁻¹. Further, in assay [2], the Michaelis constant (Km) was 0.01 ± 0.0009 mM and the “kcat (s^−1) hisoQCdt” value worked out at 1.07 ± 0.03 s⁻¹. In addition, in [3], the Km came to 0.03 ± 0.0064 mM and the “kcat (s^−1) YSShisQC” value came to 3.72 ± 0.44 s⁻¹.

Usually IC50 stands for the midpoint of a concentration-inhibition curve. A lower IC50 goes with greater potency. As usually defined, the Ki is the equilibrium dissociation constant of an inhibitor or competing ligand from its target. For orientation: Km means the substrate concentration at which the rate is half of its maximum.

The record behind these values is patent US8889709B2, “Use of isoQC inhibitors in the treatment and prevention of inflammatory diseases or conditions” (Probiodrug AG, priority 2006, dated 2014).
